{"source": "ChEMBL document CHEMBL1201862", "about": "“PubChem BioAssay data set” (2004)", "key": {"Fatty acid synthase": {"molecular_target": "Fatty acid synthase (Homo sapiens, UniProt P49327)", "test": "inhibition of human FAS-TE enzyme activity – biochemical, kinetic fluorescence intensity, dose response (AID 624326);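 note: rate of fluorescence rise from hydrolysis of a fluorogenic O-methyl fluorescein ester substrate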", "format": "functional"}, "[1]": {"molecular_target": "Voltage-dependent T-type calcium channel subunit alpha-1H (Homo sapiens, UniProt O95180)", "sequence (O95180 whole entry)": "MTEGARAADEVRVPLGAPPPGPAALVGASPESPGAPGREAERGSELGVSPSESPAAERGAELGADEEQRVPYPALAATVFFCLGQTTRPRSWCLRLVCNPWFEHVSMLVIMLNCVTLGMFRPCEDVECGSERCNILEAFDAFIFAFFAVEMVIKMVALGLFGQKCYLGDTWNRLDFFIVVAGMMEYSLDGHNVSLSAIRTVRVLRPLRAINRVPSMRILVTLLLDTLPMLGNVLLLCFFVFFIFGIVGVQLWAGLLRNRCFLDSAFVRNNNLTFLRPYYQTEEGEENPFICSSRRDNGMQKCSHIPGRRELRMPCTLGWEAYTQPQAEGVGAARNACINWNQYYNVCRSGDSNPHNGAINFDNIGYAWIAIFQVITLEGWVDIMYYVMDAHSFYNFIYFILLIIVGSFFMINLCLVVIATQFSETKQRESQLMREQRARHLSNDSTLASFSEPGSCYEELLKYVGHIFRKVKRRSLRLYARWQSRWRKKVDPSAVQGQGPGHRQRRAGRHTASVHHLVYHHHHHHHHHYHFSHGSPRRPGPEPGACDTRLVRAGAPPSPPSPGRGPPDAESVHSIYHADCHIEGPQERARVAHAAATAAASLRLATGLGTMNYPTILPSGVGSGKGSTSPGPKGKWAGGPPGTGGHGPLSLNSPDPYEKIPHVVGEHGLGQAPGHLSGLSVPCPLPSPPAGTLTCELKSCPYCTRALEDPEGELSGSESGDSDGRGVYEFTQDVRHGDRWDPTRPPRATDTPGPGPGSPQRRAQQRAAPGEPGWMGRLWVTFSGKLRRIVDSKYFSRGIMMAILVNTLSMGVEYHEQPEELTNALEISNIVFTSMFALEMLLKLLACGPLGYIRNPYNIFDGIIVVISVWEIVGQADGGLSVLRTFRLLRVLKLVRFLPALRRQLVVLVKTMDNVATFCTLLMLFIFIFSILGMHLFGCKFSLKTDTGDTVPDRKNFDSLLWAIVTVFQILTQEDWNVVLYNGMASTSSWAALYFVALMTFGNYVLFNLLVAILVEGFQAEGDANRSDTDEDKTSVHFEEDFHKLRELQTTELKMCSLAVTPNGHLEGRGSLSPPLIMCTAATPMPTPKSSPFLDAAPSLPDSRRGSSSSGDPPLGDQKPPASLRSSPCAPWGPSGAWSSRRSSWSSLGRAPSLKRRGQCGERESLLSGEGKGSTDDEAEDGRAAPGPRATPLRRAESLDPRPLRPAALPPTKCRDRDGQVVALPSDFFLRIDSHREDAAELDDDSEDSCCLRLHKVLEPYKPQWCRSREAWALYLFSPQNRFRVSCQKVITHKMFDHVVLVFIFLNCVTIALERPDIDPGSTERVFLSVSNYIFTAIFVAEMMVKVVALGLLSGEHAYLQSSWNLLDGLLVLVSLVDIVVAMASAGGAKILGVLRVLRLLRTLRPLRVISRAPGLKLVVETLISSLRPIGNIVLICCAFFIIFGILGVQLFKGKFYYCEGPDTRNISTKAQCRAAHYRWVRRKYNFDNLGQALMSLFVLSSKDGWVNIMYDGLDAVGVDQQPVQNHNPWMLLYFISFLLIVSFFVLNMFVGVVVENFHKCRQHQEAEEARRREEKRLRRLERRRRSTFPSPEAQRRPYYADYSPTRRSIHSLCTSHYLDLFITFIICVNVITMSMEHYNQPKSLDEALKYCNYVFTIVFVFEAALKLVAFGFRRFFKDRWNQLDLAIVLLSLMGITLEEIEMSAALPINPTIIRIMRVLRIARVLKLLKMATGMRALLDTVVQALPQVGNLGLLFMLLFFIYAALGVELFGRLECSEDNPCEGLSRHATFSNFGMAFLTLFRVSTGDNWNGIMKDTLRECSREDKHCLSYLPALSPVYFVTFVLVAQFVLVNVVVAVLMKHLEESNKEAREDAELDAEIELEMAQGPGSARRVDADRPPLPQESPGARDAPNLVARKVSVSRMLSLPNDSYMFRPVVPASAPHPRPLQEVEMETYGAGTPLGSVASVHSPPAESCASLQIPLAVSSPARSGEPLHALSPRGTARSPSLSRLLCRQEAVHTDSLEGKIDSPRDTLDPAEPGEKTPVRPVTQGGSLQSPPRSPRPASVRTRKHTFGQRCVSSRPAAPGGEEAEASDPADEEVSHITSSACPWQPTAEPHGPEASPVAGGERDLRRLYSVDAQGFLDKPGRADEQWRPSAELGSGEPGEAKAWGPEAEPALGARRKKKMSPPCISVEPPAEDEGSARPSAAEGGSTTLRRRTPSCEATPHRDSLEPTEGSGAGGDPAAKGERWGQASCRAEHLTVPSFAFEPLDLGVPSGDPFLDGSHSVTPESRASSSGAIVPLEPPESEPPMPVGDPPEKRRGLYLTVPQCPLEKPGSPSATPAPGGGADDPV", "format": "functional"}, "Genome polyprotein": {"molecular_target": "Genome polyprotein (dengue virus type 2, UniProt P29990)", "sequence (P29990 2492-3391 limits assumed)": "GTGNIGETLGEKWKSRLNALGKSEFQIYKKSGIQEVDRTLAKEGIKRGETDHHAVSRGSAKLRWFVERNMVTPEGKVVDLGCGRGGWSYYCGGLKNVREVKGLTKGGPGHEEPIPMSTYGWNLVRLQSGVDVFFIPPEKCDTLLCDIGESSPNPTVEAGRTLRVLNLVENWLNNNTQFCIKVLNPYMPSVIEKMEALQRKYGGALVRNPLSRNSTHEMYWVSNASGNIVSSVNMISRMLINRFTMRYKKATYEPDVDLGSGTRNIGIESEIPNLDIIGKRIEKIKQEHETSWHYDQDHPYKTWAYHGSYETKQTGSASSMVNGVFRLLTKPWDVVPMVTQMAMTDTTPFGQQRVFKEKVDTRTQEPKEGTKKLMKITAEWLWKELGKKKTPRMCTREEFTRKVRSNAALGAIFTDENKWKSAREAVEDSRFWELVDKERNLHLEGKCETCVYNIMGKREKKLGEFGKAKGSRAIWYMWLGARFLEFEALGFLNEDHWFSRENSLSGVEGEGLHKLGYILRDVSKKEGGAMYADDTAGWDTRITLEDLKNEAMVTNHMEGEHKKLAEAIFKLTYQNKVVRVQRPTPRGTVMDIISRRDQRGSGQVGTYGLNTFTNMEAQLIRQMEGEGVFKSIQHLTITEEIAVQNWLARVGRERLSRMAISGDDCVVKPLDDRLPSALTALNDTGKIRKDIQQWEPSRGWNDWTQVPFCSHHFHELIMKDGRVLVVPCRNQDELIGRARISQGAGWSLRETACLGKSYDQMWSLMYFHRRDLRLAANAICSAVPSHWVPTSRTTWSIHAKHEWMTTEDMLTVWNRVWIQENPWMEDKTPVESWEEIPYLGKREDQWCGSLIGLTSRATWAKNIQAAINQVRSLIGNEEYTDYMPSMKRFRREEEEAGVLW", "test": "flavivirus cap methylation enzyme inhibition – biochemical, confirmation dose response, primary screen (AID 588689)", "format": "functional"}, "Leucine aminopeptidase": {"molecular_target": "T1, Leucine aminopeptidase (Plasmodium falciparum 3D7, UniProt Q8IL11)", "T1 sequence (Q8IL11 whole entry)": "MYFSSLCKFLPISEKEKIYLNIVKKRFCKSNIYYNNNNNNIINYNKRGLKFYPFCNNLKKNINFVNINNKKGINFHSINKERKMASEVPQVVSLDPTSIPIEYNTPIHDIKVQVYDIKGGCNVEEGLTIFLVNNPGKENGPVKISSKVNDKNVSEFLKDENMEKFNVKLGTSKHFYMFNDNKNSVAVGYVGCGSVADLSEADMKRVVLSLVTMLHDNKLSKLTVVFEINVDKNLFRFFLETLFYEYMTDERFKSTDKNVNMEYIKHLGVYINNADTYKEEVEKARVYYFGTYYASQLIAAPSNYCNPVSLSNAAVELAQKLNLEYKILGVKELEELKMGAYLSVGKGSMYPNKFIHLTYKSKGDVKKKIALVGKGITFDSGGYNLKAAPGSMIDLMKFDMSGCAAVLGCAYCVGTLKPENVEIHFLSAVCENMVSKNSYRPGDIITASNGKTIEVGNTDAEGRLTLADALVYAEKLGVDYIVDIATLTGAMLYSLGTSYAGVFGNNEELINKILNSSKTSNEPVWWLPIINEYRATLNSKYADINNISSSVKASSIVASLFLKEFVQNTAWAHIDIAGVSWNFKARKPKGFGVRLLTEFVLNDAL", "test": "P. falciparum M17LAP inhibitors, primary screen, biochemical, fluorogenic H-Leu-NHMec substrate, 1536-well (AID 1619)", "format": "functional"}, "Cytochrome P450 2C9": {"molecular_target": "Cytochrome P450 2C9 (Homo sapiens, UniProt P11712)", "sequence (P11712 whole entry)": "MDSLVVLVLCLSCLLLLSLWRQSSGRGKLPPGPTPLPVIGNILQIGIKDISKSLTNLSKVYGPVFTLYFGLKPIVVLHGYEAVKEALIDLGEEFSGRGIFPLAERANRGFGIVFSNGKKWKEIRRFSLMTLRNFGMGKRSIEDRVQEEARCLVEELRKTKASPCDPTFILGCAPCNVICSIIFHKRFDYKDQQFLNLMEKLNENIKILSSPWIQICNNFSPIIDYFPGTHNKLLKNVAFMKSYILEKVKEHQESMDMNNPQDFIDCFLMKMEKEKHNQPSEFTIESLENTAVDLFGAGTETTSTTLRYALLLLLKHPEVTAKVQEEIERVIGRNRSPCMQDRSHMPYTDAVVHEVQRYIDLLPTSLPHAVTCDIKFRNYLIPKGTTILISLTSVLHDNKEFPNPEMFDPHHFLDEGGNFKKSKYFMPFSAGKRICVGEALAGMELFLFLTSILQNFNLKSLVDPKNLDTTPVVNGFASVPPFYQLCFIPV"}, "Cytochrome P450 2D6": {"molecular_target": "Cytochrome P450 2D6 (Homo sapiens, UniProt P10635)", "sequence (P10635 whole entry)": "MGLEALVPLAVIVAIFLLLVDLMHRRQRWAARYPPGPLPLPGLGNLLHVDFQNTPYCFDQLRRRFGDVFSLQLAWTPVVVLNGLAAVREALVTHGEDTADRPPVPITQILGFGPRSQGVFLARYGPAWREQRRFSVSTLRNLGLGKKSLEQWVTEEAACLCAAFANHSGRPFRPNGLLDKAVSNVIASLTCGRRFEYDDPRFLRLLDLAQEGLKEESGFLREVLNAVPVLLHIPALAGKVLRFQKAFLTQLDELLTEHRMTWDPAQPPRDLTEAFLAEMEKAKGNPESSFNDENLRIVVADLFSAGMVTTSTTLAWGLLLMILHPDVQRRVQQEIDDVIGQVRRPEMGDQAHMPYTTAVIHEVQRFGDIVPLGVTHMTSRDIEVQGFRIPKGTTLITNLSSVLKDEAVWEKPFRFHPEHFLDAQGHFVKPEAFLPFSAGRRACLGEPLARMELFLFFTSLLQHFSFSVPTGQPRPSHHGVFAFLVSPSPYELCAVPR"}, "[2]": {"molecular_target": "Induced myeloid leukemia cell differentiation protein Mcl-1 (Homo sapiens, UniProt Q07820)", "sequence (Q07820 whole entry)": "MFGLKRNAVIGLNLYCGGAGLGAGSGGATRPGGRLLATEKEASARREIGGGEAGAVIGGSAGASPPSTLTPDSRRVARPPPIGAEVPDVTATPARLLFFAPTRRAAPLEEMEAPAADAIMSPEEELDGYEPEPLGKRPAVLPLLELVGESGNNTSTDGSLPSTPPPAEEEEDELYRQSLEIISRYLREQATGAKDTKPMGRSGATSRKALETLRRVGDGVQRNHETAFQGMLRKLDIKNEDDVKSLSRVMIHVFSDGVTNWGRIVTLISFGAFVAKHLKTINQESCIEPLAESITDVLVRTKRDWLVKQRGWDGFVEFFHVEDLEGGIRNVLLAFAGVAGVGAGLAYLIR", "format": "functional"}, "Cytochrome P450 1A2": {"molecular_target": "T2, Cytochrome P450 1A2 (Homo sapiens, UniProt P05177)", "T2 sequence (P05177 whole entry)": "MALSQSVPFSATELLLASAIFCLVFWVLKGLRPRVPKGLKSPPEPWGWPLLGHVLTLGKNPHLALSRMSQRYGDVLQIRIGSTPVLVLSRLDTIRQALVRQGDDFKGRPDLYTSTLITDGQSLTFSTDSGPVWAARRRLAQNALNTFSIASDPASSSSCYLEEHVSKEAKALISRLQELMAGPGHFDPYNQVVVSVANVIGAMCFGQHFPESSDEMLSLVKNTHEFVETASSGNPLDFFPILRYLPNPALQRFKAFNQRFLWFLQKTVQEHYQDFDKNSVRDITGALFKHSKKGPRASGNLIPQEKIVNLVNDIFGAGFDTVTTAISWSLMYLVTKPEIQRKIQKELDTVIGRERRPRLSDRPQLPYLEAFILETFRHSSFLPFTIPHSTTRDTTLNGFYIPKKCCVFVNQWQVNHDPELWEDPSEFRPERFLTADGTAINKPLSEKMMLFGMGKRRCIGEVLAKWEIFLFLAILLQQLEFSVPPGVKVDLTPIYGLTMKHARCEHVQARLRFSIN"}, "[3]": {"test": "NIH3T3 cell viability loss – ATP luminescence, mouse fibroblasts, counter-screen, dose response (AID 2010);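 note: cells exposed to compound for about 90 hours before reading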", "format": "functional, cell-based"}, "[4]": {"test": "blockade of melanocortin 4 receptor signaling – cell-based, plate reader, cherry pick, counter-screen for LGR2 antagonist project, dose response (AID 743444);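 note: transfected HEK 293 cells stimulated with alpha-MSH peptide; potency of inhibitors of the alpha-MSH evoked signal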", "format": "functional"}, "[5]": {"test": "Luminescence Cell-Based Dose Retest to Confirm Inhibitors of Cancer Stem Cells. [Related pubchem assays (depositor defined):AID2717, AID2721]", "format": "functional", "settings": "Homo sapiens"}, "[6]": {"test": "Trypanosoma cruzi growth suppression in host cells – NIH3T3 host cells, beta-gal luminescence, confirmation (AID 2044);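 note: intracellular parasites grown in NIH/3T3 mouse fibroblasts as host cells; luminescent beta-galactosidase reporter signal from transgenic T. cruzi replicating inside host cells; inhibitors lower the luminescence signal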", "format": "functional, cell-based"}, "[7]": {"test": "blockers of bursicon-stimulated LGR2 cAMP reporter – cell-based, HEK293, CRE-luciferase reporter, cherry pick, set 2, dose response (AID 743343);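 note: transfected cells were stimulated with diluted bursicon conditioned medium after compound addition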", "format": "functional"}, "[8]": {"test": "viability loss of HPDE-C7K cells – cell-based, fluorescence, HTS, primary screen (AID 431)", "format": "functional", "settings": "Homo sapiens"}, "[9]": {"test": "HPDE-C7 pancreatic duct cell viability loss – fluorescence, HTS (AID 430)", "format": "functional, cell-based", "settings": "Homo sapiens"}, "[10]": {"molecular_target": "T3, Zinc finger protein mex-5 (Caenorhabditis elegans, UniProt Q9XUB2)", "T3 sequence (Q9XUB2 whole entry)": "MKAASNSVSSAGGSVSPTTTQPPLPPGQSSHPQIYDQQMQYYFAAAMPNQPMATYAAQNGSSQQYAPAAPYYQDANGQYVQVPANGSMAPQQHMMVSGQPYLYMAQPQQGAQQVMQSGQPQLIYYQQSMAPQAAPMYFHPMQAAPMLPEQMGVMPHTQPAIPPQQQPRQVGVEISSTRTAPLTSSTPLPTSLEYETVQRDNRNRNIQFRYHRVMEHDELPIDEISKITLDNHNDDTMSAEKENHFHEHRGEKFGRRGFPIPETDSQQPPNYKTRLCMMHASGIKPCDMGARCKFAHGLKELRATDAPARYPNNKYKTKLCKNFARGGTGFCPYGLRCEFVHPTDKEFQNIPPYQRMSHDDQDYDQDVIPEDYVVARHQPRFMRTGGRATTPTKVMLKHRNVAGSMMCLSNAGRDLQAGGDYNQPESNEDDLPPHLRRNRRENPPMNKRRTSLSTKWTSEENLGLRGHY", "test": "potency of MEX-5 RNA-binding blockers – biochemical, C. elegans, fluorescence polarization, dose response (AID 1960)"}, "[11]": {"molecular_target": "T4, Endoribonuclease toxin MazF (Escherichia coli K-12, UniProt P0AE70)", "T4 sequence (P0AE70 whole entry)": "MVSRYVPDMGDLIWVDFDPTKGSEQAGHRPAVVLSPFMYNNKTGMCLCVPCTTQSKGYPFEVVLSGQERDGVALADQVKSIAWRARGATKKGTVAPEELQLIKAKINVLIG", "test": "activation of MazEF endoribonuclease cleavage – biochemical, fluorescence, single-stranded RNA substrate, uHTS hits, dose response (AID 588481)", "format": "functional"}, "[12]": {"molecular_target": "T4, Endoribonuclease toxin MazF", "test": "substrate-only fluorescence increase artefacts – biochemical, single-stranded RNase substrate, counter-screen for MazEF activator project, dose response (AID 588502)", "format": "functional"}, "[13]": {"molecular_target": "T5, RNA-binding protein pos-1 (Caenorhabditis elegans, UniProt G5EF15)", "T5 sequence (G5EF15 whole entry)": "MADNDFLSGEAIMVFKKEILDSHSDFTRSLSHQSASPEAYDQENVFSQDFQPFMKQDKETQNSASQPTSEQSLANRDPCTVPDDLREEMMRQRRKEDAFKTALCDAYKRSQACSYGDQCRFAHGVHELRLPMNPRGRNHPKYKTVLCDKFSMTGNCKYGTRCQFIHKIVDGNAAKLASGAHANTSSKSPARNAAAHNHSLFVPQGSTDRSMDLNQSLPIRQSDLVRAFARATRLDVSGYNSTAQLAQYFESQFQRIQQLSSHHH", "test": "disruptors of C. elegans POS-1 RNA interaction – biochemical, fluorescence polarization, dose response (AID 1964);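 note: purified POS-1 fused to maltose binding protein made in E. coli; potency of compounds blocking POS-1 binding to fluorescent RNA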"}, "[14]": {"test": "viability of PTEN-deleted HCT116 cells – cell-based, HCT116 PTEN knockout, dose response (AID 1047);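 note: HCT116 colon tumor cells with PTEN knocked out; cells exposed to compound for 60 hours before readout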", "format": "functional"}, "[15]": {"test": "viability of HCT116 lacking mutant beta-catenin – cell-based, human colon tumor, dose response (AID 1045);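 note: HCT116 colon tumor cells with beta catenin knocked out; cells exposed to compound for 60 hours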", "format": "functional"}}, "note": "Calls of active or inactive are those of the source."}
{"smiles": "CC(C)(C)OC(=O)NCCCC[C@H](NC(=O)c1[nH]cnc1C(=O)NC1CCN(C(=O)OC(C)(C)C)CC1)C(=O)OC(C)(C)C", "values": [{"measurement": "IC50", "setting": "Fatty acid synthase", "result": "1.6 µM (active)"}]}
{"smiles": "CN(CCOc1ccc(Cl)cc1)c1ccc(S(=O)(=O)N2CCCCC2)cn1", "values": [{"measurement": "EC50", "setting": "[1]", "result": "2.82 µM (active)"}]}
{"smiles": "Cc1cccc(COCC(Cc2ccccc2)N2CCN(C(=O)c3cc(Cl)cc(Cl)c3)CCC2=O)c1", "note": "(centres undefined)", "values": [{"measurement": "EC50", "setting": "[1]", "result": "3.04 µM (active)"}]}
{"smiles": "CC(C)(C)C1CCc2c(sc(NC(=O)C3CC=CCC3C(=O)O)c2C#N)C1", "note": "(centres undefined)", "values": [{"measurement": "IC50", "setting": "Genome polyprotein", "result": "39.4 µM (active)"}, {"measurement": "IC50", "setting": "Leucine aminopeptidase", "result": "11 µM (active)"}]}
{"smiles": "CS(=O)(=O)Nc1cccc(-c2cc(NCc3cccs3)ncn2)c1", "values": [{"measurement": "AC50", "setting": "Cytochrome P450 2C9", "result": "inconclusive"}, {"measurement": "AC50", "setting": "Cytochrome P450 2D6", "result": "20 µM (inconclusive)"}]}
{"smiles": "CC1CCCCC12NC(=O)N(CC(=O)Nc1sc3c(c1C(N)=O)CCC3)C2=O", "note": "(centres undefined)", "values": [{"measurement": "IC50", "setting": "[2]", "result": "3.5 µM (active)"}]}
{"smiles": "O=C1c2ccccc2C(Nc2ccc(F)c(Cl)c2)N1Cc1ccco1", "note": "(centres undefined)", "values": [{"measurement": "EC50", "setting": "[1]", "result": "3.88 µM (active)"}]}
{"smiles": "CC(C)Oc1ccc(CNC(=O)CC(c2ccccc2)c2cc(Cl)ccc2O)cc1", "note": "(centres undefined)", "values": [{"measurement": "AC50", "setting": "Cytochrome P450 1A2", "result": "28.2 µM (inconclusive)"}, {"measurement": "EC50", "setting": "[3]", "result": "> 30 µM (not active)"}, {"measurement": "AC50", "setting": "[4]", "result": "26.7 µM (active)"}, {"measurement": "AC50", "setting": "[5]", "result": "5.73 µM (active)"}, {"measurement": "EC50", "setting": "[6]", "result": "2.17 µM (active)"}, {"measurement": "AC50", "setting": "[7]", "result": "28 µM (active)"}]}
{"smiles": "CCCC1(CCC)C(=O)N=C(NCc2ccccc2)NC1=O", "values": [{"measurement": "EC50", "setting": "[8]", "result": "13.4 µM (active)"}, {"measurement": "EC50", "setting": "[9]", "result": "14.4 µM (active)"}]}
{"smiles": "COc1cc(-c2nnc(SCC3(c4ccccc4)OCCO3)o2)cc(OC)c1OC", "values": [{"measurement": "AC50", "setting": "Cytochrome P450 2C9", "result": "inconclusive"}]}
{"smiles": "CCn1c(/C=C/c2c(C)[nH]c3ccccc23)nc2ccccc2c1=O", "values": [{"measurement": "EC50", "setting": "[10]", "result": "> 300 µM (inconclusive)"}, {"measurement": "EC50", "setting": "[11]", "result": "> 99 µM (inactive)"}, {"measurement": "EC50", "setting": "[12]", "result": "> 99 µM (inactive)"}, {"measurement": "EC50", "setting": "[13]", "result": "> 300 µM (not active)"}, {"measurement": "EC50", "setting": "[14]", "result": "7.1 µM (active)"}, {"measurement": "EC50", "setting": "[15]", "result": "5.59 µM (active)"}]}
